Laboratory results taken from US20180344726A1, “ABUSE RESISTANT TRANSDERMAL DELIVERY DEVICES AND COMPOSITIONS COMPRISING AN OPIOID AGONIST AND A NON-TRANSDERMALLY DELIVERED N-OXIDE DERIVATIVE OF AN OPIOID ANTAGONIST FOR THE TREATMENT OF PAIN” (priority 2015, published 2018).
Read-outs that look alike come from different tables or passages of the source.

Legend:
Format in all cases: physicochemical
[1] = pKa analysis by pH-metric triple titration; conditions: aqueous solution, […] C., […] KCl, read-out: pKa
Description: (§1) pKa analysis was performed using a pH-metric method. […] No precipitation or degradation was observed and two pKas were determined from the potentiometric data. Log P was determined using the potentiometric (pH-metric method). The sample was titrated in various ratios of octanol/water in two titrations covering the pH range 2.0-12.0 at concentrations of 1.9-1.1 mM. The shift of the aqueous pKas in the presence of octanol was used to determine the log P of the neutral species.

[2] = Log P by potentiometric (pH-metric) octanol/water titration; conditions: Neutral species, 25.0 ° C., 0.15M KCl, read-out: LogP
Description: as §1

[3] = Concentration of saturated antagonist solutions in phosphate buffer pH 5.0; conditions: phosphate buffer pH 5.0, stirred overnight, filtered
Description: The determination of in vitro skin permeation was performed with saturated solutions of the respective antagonist species. Therefore an excess of the antagonist was weighed in phosphate buffer of pH 5.0 and stirred overnight. pH was monitored and, if necessary, adjusted. The cells were incubated at 32° C. Solutions were filtrated through a syringe filter (1 μm PTFE) prior to application into the diffusion cells. Concentrations of the solutions were determined.
The determination of naloxone and naloxone N-oxide in the acceptor medium of the in vitro skin permeations samples (receptor phase) was done by HPLC with UV-detection.

C=CCN1CC[C@]23c4c5ccc(O)c4O[C@H]2C(=O)CC[C@@]3(O)[C@H]1C5 [Naloxone, (4R,4aS,7aR,12bS)-4a,9-dihydroxy-3-prop-2-enyl-2,4,5,6,7a,13-hexahydro-1H-4,12-methanobenzofuro[3,2-e]isoquinoline-7-one, reference compound]
pKa ([1]; Type Acid): 9.15 ± 0.01
pKa ([1]; Type Base): 8.07 ± 0.01
logP [2]: 1.97
Concentration saturated solution c [3]: 4460 µg/mL
